Experimental data: article PMC12156185, “Synthesis of Cyclic Hexapeptides via the Hydrazide Method and Evaluation of Their Antibacterial Activities” (Molecules, 2025)
≈ marks a conversion by molar mass, not a printed value. Where a SMILES comes first, the peptide text is derived from it.

What was measured:
[1] = tested on: Acinetobacter baumannii (BNCC 337173); type: cell-based
Description: (§1) The antimicrobial and antifungal activities of 11 cyclic hexapeptides (Cy-f1 to Cy-f11) were evaluated by determining their minimum inhibitory concentrations (MICs) against a panel of pathogens (Figure 4). These pathogens included Gram-negative bacteria (Escherichia coli, Klebsiella pneumoniae, Pseudomonas aeruginosa), Gram-positive bacteria (Staphylococcus aureus, Bacillus subtilis, Staphylococcus aureus [MRSA], […]), and fungi (Candida tropicalis, Cryptococcus neoformans).
(§2) The antibacterial activity of peptide analogs was tested against different bacterial strains, all purified cyclotides underwent antibacterial testing against Gram-positive bacterium Staphylococcus aureus (BNCC 186335), Bacillus subtilis (BNCC 109047), and Staphylococcus aureus (MRSA, BNCC 330041), Gram-negative bacteria, including Acinetobacter baumannii (BNCC 337173), Pseudomonas aeruginosa (BNCC 125486), and […]. Fungi included Candida parapsilosis (BNCC 336515) and Candida tropicalis (BNCC 340288). All the above strains are from the Henan Provincial Engineering Research Center of Industrial Microorganisms (Henan, China). Escherichia coli (ATCC 25922) and Klebsiella pneumoniae (CMCC(B) 46117) were sourced from Guangzhou HuanKai Microbial Technology Co., Ltd. (Guangzhou, China). The peptides’ MIC was determined using the Clinical and Laboratory Standards Institute broth dilution procedure with slight modifications.
(§3) Colonies of these bacterial strains were grown in respective agar media, then inoculated in Mueller Hinton (MH) broth and incubated at 37 °C overnight. The peptide solutions were first diluted 1 in 100 (from the stock solution at 20 mM) and then further two-fold dilution in MH broth in a sterile 96-well plate was performed, resulting in 100 µL of broth containing increasing concentrations. Bacteria in their exponential growth phase were diluted in MH broth, and 100 µL of this suspension was added in each well. […] Then, these plates were incubated at 37 °C for 20–22 h.
(§4) Each test was performed at least three times. MIC (minimum inhibitory concentration) values were determined as the concentrations of peptides that caused >99% inhibition of bacterial growth.

[2] = tested on: Bacillus subtilis (BNCC 109047); type: cell-based
Description: as §1, §2, §3, §4

[3] = tested on: Escherichia coli (ATCC 25922); type: cell-based
Description: as §1, §2, §3, §4

[4] = tested on: Klebsiella pneumoniae (CMCC(B) 46117); type: cell-based
Description: as §1, §2, §3, §4

[5] = tested on: Pseudomonas aeruginosa (BNCC 125486); type: cell-based
Description: as §1, §2, §3, §4

[6] = tested on: Staphylococcus aureus (BNCC 186335); type: cell-based
Description: as §1, §2, §3, §4

[7] = tested on: Staphylococcus aureus (MRSA, BNCC 330041); type: cell-based
Description: as §1, §2, §3, §4

[8] = tested on: Cryptococcus neoformans (BNCC 225501); type: cell-based; details: BNCC 225501, 48 h
Description: as §1, §2, §4

[9] = tested on: Candida tropicalis (BNCC 340288); type: cell-based; details: BNCC 340288, 24 h
Description: as §1, §2
Candida tropicalis was cultured on Sabourad Dextrose Agar (SDA). A single colony was inoculated in YM broth medium and grown overnight at 37 °C while shaking. Peptides were diluted in SDB media by two-fold dilution, resulting in 100 µL of medium containing increasing concentrations. The overnight culture (turbidity at OD600 = 1) was 1000× diluted in SDB. Then 100 µL of this suspension was added to each well, resulting in a final 200 µL suspension containing 2–4 × 10^5 CFU/mL. The plate was incubated at 37 °C for 24 h.
as §4

[10] = Head-to-tail amide via hydrazide-based intramolecular NCL: C-terminal peptide hydrazide + NaNO2 (10 eq, pH 3, -15 °C) to acyl azide, then MPAA (40 eq) thioester, pH 6.3-6.5 (Fig 2: 6.7-7), S-to-N acyl shift onto N-terminal Cys; TCEP work-up; details: the molecule shown is the open-chain precursor; 18-membered ring; 0.2 M sodium phosphate, 6 M guanidine HCl (aq); 0.75 mM; 25.0 °C

Compound | MIC against A. baumannii [1] [µM] | MIC against B. subtilis [2] [µM] | MIC against E. coli [3] [µM] | MIC against K. pneumoniae [4] [µM] | MIC against P. aeruginosa [5] [µM] | MIC against S. aureus [6] [µM] | MIC against MRSA [7] [µM] | MIC against C. neoformans [8] [µM] | MIC against C. tropicalis [9] [µM] | ring closure, product found (1=cyclised, 0=failed) [10]
CC[C@H](C)[C@@H]1NC(=O)[C@H](CCCCN)NC(=O)[C@H](CC(C)C)NC(=O)[C@H](CCCCN)NC(=O)[C@H](CS)NC(=O)[C@H](Cc2ccccc2)NC1=O [Cy-f3] (cyclo(CKLKIF)) | 128 (≈ 93.8 µg/mL) | 32 (≈ 23.5 µg/mL) | 64 (≈ 46.9 µg/mL) | 64 (≈ 46.9 µg/mL) | 128 (≈ 93.8 µg/mL) | 16 (≈ 11.7 µg/mL) | 32 (≈ 23.5 µg/mL) | 8 (≈ 5.86 µg/mL) | 32 (≈ 23.5 µg/mL) | –
CC[C@H](C)[C@@H]1NC(=O)[C@H]([C@@H](C)CC)NC(=O)[C@@H]2CCCN2C(=O)[C@H](CCCCN)NC(=O)[C@H](CCCNC(=N)N)NC(=O)[C@H](CS)NC1=O [Cy-f5] (cyclo(CRKPII)) | – | – | 128 (≈ 91 µg/mL) | – | 128 (≈ 91 µg/mL) | 16 (≈ 11.4 µg/mL) | – | 32 (≈ 22.8 µg/mL) | 64 (≈ 45.5 µg/mL) | –
CC[C@H](C)[C@@H]1NC(=O)[C@@H]2CCCN2C(=O)[C@H](CCCCN)NC(=O)[C@H](CCCNC(=N)N)NC(=O)[C@H](CS)NC(=O)[C@H](C(C)C)NC1=O [Cy-f6] (cyclo(CRKPIV)) | > 200 | > 200 | > 200 | > 200 | > 200 | > 200 | > 200 | > 200 | > 200 | –
CC(C)C[C@@H]1NC(=O)[C@H](C(C)C)NC(=O)[C@@H]2CCCN2C(=O)[C@H](CCCCN)NC(=O)[C@H](CCCNC(=N)N)NC(=O)[C@H](CS)NC1=O [Cy-f7] (cyclo(CRKPVL)) | – | – | 128 (≈ 89.2 µg/mL) | – | 128 (≈ 89.2 µg/mL) | 32 (≈ 22.3 µg/mL) | – | 16 (≈ 11.2 µg/mL) | 32 (≈ 22.3 µg/mL) | –
CC[C@H](C)[C@@H]1NC(=O)[C@H](CCCNC(=N)N)NC(=O)[C@H](CS)NC(=O)[C@H](CCCNC(=N)N)NC(=O)[C@H](C(C)C)NC(=O)[C@H](C(C)C)NC1=O [Cy-f8] (cyclo(CRIVVR)) | – | 8 (≈ 5.82 µg/mL) | 16 (≈ 11.6 µg/mL) | 32 (≈ 23.3 µg/mL) | – | 8 (≈ 5.82 µg/mL) | – | 32 (≈ 23.3 µg/mL) | 16 (≈ 11.6 µg/mL) | –
CC[C@H](C)[C@@H]1NC(=O)[C@H](CS)NC(=O)[C@H](CC(C)C)NC(=O)[C@H]([C@@H](C)CC)NC(=O)[C@@H]2CCCN2C(=O)[C@H](CCCNC(=N)N)NC1=O [Cy-f9] (cyclo(CIRPIL)) | > 200 | > 200 | > 200 | > 200 | > 200 | > 200 | > 200 | > 200 | > 200 | –
CC[C@H](C)[C@@H]1NC(=O)[C@H](C(C)C)NC(=O)[C@H](CCCNC(=N)N)NC(=O)[C@H](CS)NC(=O)[C@H](CCCNC(=N)N)NC(=O)[C@H]([C@@H](C)CC)NC1=O [Cy-f10] (cyclo(CRVIIR)) | – | – | – | – | 128 (≈ 94.8 µg/mL) | 8 (≈ 5.93 µg/mL) | – | 16 (≈ 11.9 µg/mL) | 128 (≈ 94.8 µg/mL) | –
CC[C@H](C)[C@@H]1NC(=O)[C@H](CS)NC(=O)[C@H]([C@@H](C)CC)NC(=O)[C@H]([C@@H](C)CC)NC(=O)[C@@H]2CCCN2C(=O)[C@H](CCCNC(=N)N)NC1=O [Cy-f11] (cyclo(CIRPII)) | > 200 | 64 (≈ 44.5 µg/mL) | > 200 | 64 (≈ 44.5 µg/mL) | > 200 | > 200 | > 200 | 128 (≈ 89.1 µg/mL) | 64 (≈ 44.5 µg/mL) | –
CC[C@H](C)[C@H](NC(=O)[C@H](CCCNC(=N)N)NC(=O)[C@@H](N)CS)C(=O)N[C@H](C(=O)N[C@H](C(=O)N[C@@H](CCCNC(=N)N)C(=O)NN)C(C)C)C(C)C [H-Cys-Arg-Ile-Val-Val-Arg-NHNH2] | – | – | – | – | – | – | – | – | – | 1
CC[C@H](C)[C@H](NC(=O)[C@H](CCCCN)NC(=O)[C@H](CC(C)C)NC(=O)[C@H](CCCNC(=N)N)NC(=O)[C@@H](N)CS)C(=O)N[C@@H](Cc1ccccc1)C(=O)NN [H-Cys-Arg-Leu-Lys-Ile-Phe-NHNH2] | – | – | – | – | – | – | – | – | – | 1
CC[C@H](C)[C@H](NC(=O)[C@@H](NC(=O)[C@@H]1CCCN1C(=O)[C@H](CCCCN)NC(=O)[C@H](CCCNC(=N)N)NC(=O)[C@@H](N)CS)[C@@H](C)CC)C(=O)NN [H-Cys-Arg-Lys-Pro-Ile-Ile-NHNH2] | – | – | – | – | – | – | – | – | – | 1
CC[C@H](C)[C@H](NC(=O)[C@@H]1CCCN1C(=O)[C@H](CCCCN)NC(=O)[C@H](CCCNC(=N)N)NC(=O)[C@@H](N)CS)C(=O)N[C@H](C(=O)NN)C(C)C [H-Cys-Arg-Lys-Pro-Ile-Val-NHNH2] | – | – | – | – | – | – | – | – | – | 1
CC(C)C[C@H](NC(=O)[C@@H](NC(=O)[C@@H]1CCCN1C(=O)[C@H](CCCCN)NC(=O)[C@H](CCCNC(=N)N)NC(=O)[C@@H](N)CS)C(C)C)C(=O)NN [H-Cys-Arg-Lys-Pro-Val-Leu-NHNH2] | – | – | – | – | – | – | – | – | – | 1
CC[C@H](C)[C@H](NC(=O)[C@@H](NC(=O)[C@H](CCCNC(=N)N)NC(=O)[C@@H](N)CS)C(C)C)C(=O)N[C@H](C(=O)N[C@@H](CCCNC(=N)N)C(=O)NN)[C@@H](C)CC [H-Cys-Arg-Val-Ile-Ile-Arg-NHNH2] | – | – | – | – | – | – | – | – | – | 1
CC[C@H](C)[C@H](NC(=O)[C@@H](NC(=O)[C@@H]1CCCN1C(=O)[C@H](CCCNC(=N)N)NC(=O)[C@@H](NC(=O)[C@@H](N)CS)[C@@H](C)CC)[C@@H](C)CC)C(=O)NN [H-Cys-Ile-Arg-Pro-Ile-Ile-NHNH2] | – | – | – | – | – | – | – | – | – | 1
CC[C@H](C)[C@H](NC(=O)[C@@H](N)CS)C(=O)N[C@@H](CCCNC(=N)N)C(=O)N1CCC[C@H]1C(=O)N[C@H](C(=O)N[C@@H](CC(C)C)C(=O)NN)[C@@H](C)CC [H-Cys-Ile-Arg-Pro-Ile-Leu-NHNH2] | – | – | – | – | – | – | – | – | – | 1
CC[C@H](C)[C@H](NC(=O)[C@H](CCCCN)NC(=O)[C@H](CC(C)C)NC(=O)[C@H](CC(C)C)NC(=O)[C@@H](N)CS)C(=O)N[C@@H](Cc1ccccc1)C(=O)NN [H-Cys-Leu-Leu-Lys-Ile-Phe-NHNH2] | – | – | – | – | – | – | – | – | – | 1
CC(C)C[C@H](NC(=O)[C@H](CCCCN)NC(=O)[C@@H](N)CS)C(=O)N[C@@H](CCCNC(=N)N)C(=O)N[C@@H](Cc1c[nH]c2ccccc12)C(=O)N[C@@H](Cc1ccccc1)C(=O)NN [H-Cys-Lys-Leu-Arg-Trp-Phe-NHNH2] | – | – | – | – | – | – | – | – | – | 1
CC[C@H](C)[C@H](NC(=O)[C@H](CCCCN)NC(=O)[C@H](CC(C)C)NC(=O)[C@H](CCCCN)NC(=O)[C@@H](N)CS)C(=O)N[C@@H](Cc1ccccc1)C(=O)NN [H-Cys-Lys-Leu-Lys-Ile-Phe-NHNH2] | – | – | – | – | – | – | – | – | – | 1
